Laboratory results: patent publication US10342796B2, “Acrylanilide derivative, preparation method, and applications thereof in pharmacy” (Ancureall Pharmaceutical (Shanghai) Co., Ltd., priority 2015, dated 2019)
Read-outs that look alike come from different tables or passages of the source.

How the values were obtained:
Assay in all cases: Growth inhibition GI50 in vitro (CCK8/MTT, 72 h)
H1975 (EGFR L858R/T790M) = assay type: cell-based, human; conditions: Homo sapiens, NCI-H1975
HCC827 (EGFR dE746-A750) = assay type: cell-based, human; conditions: Homo sapiens
PC-9 (EGFR dE746-A750) = assay type: cell-based, human; conditions: Homo sapiens
[1] = system: PC-9ER (EGFR delE746-A750/T790M); assay type: cell-based, human; conditions: Homo sapiens, PC-9/ER; EGFR mutant cell line; range of GI50; read-out: GI50 PC9ER
N87 (HER2 Amp) = assay type: cell-based, human; conditions: Homo sapiens
AU565 (Her2 amp) = assay type: cell-based, human; conditions: Homo sapiens
SK-BR-3 (Her2 amp) = assay type: cell-based, human; conditions: Homo sapiens
[2] = system: A431 (EGFR WT, amplification and high expression); assay type: cell-based, human; conditions: Homo sapiens, A-431
A549 (EGFR WT) = assay type: cell-based, human; conditions: Homo sapiens
[3] = system: H1299 (EGFR wt, Nras Q61K); assay type: cell-based, human; conditions: Homo sapiens, NCI-H1299
[4] = system: H460 (EGFR wt, Kras G61H); assay type: cell-based, human; conditions: Homo sapiens, NCI-H460
H292 (EGFR WT) = assay type: cell-based; conditions: Homo sapiens, NCI-H292
Calu-3 (Her2 amp) = assay type: cell-based; conditions: Homo sapiens, Calu-3; Table 16; 1000 nM to 0.03 nM serial dilution; read-out: GI50 Calu3 (HER2 amp)
Protocol: Human lung adenocarcinoma cell line Calu-3 (ATCC) was cultured with 1×MEM complete medium (10% FBS, 1% double-antibiotics, 1% NEAA (Gibco), 2 mM glutamine and 1 mM of sodium pyruvate). Human breast cancer cell line SK-BR-3 was cultured with McCOY'S5A complete medium (10% FBS). Human colon cancer cell line SNU1040 (HER2 V777M positive) (ATCC) and human bronchoalveolar adenocarcinoma cell line NCI-H1781 (expressing HER2 exon 20 G776VC mutation) (ATCC) were cultured with 1×RPMI1640 complete medium (10% FBS), respectively.
The suspension cells were collected by centrifugation. The supernatant was discard and the cell pellet was resuspended and counted. Different cell concentrations (5˜10×10^4 cells/mL) were prepared according to the growth cycle of each cell line and then seeded on a 96-well plate (Corning), 100 μL/well. The cells were incubated over night at 37° C., 5% CO2. The compounds were added to the cells on the second day with 2 wells in parallel. The final concentration of organic solvent shall not exceed 1%. The cells were continually incubated for 72 h, and then subjected to MTT assay.
The present compounds and the reference compounds were dissolved with DMSO (Sigma), respectively. […] The storage concentration of compounds was 10 mM and kept at −20° C. They were diluted by 2 times or 10 times with serial dilution before using.
Dojindo CCK8 reagent kit was used as MTT assay. […] FC meter was used as microplate reader.
Adherent cell culture medium was discard and immediately replaced with fresh prepared medium which contains 10% CCK8 reagent (100 μL/well). For the suspension cells, CCK8 was directly added to 10% of the final concentration. The cells were continually incubated for 1˜4 h. When the color of control wells turned to dark yellow, the absorption value was measured at OD450 nm. The cell growth rate was calculated according to the following formula: cell growth rate (%)=100*(T−T0)/(C−T0), T=optical density of drug treatment cell well—optical density of blank control well; T0=optical density of cell well before drug treatment—optical density of blank control well; C=optical density of cell well of solvent control group—optical density of blank control well. […] The experiment was independently repeated 1˜3 times, and subject to biological statistical analysis.

[5] = EGFR mutant cell line, range of GI50, read-out: GI50 H1975
[6] = HCC827, EGFR mutant cell line, range of GI50, read-out: GI50 HCC827
[7] = EGFR mutant cell line, range of GI50, read-out: GI50 PC-9
[8] = HER2 positive cell line, range of GI50, read-out: GI50 N87
[9] = AU565, HER2 positive cell line, range of GI50, read-out: GI50 AU-565
[10] = SK-BR-3, HER2 positive cell line, range of GI50, read-out: GI50 SK-BR-3
[11] = EGFR wild type cell line, range of GI50, read-out: GI50 A431
[12] = A549, EGFR wild type cell line, range of GI50, read-out: GI50 A549
[13] = EGFR wild type cell line, range of GI50, read-out: GI50 H1299
[14] = EGFR wild type cell line, range of GI50, read-out: GI50 H460
[15] = Table 13, 72 h, read-out: Range of GI50 H1975 (EGFR L858R/T790M)
[16] = Table 15, 1000 nM to 0.03 nM serial dilution, read-out: GI50 H1975 (EGFR L858R/T790M)
[17] = Table 13, 72 h, read-out: Range of GI50 PC-9 (EGFR dE746-A750)
[18] = Table 15, 1000 nM to 0.03 nM serial dilution, read-out: GI50 PC-9 (EGFR dE746-A750)
[19] = Table 13, 72 h, read-out: Range of GI50 N87 (HER2 Amp)
[20] = Table 16, 1000 nM to 0.03 nM serial dilution, read-out: GI50 N87 (HER2 amp)
[21] = Table 15, 1000 nM to 0.03 nM serial dilution, read-out: GI50 H292 (EGFR WT)
[22] = A549, Table 13, 72 h, read-out: Range of GI50 A549 (EGFR WT)
[23] = A549, Table 15, 1000 nM to 0.03 nM serial dilution, read-out: GI50 A549 (EGFR WT)

GI50 (H1975 (EGFR L858R/T790M); [5])	GI50 (HCC827 (EGFR dE746-A750); [6])	GI50 (PC-9 (EGFR dE746-A750); [7])	GI50 [1]	GI50 (SK-BR-3 (Her2 amp); [10])	GI50 [2, 11]	GI50 (A549 (EGFR WT); [12])	GI50 [3, 13]	GI50 [4, 14]	GI50 (H1975 (EGFR L858R/T790M); [15])	GI50 (H1975 (EGFR L858R/T790M); [16])	GI50 (PC-9 (EGFR dE746-A750); [17])	GI50 (PC-9 (EGFR dE746-A750); [18])	GI50 (H292 (EGFR WT); [21])	GI50 (A549 (EGFR WT); [22])	GI50 (A549 (EGFR WT); [23])	Compound	GI50 (N87 (HER2 Amp); [8])	GI50 (AU565 (Her2 amp); [9])	GI50 (N87 (HER2 Amp); [19])	GI50 (N87 (HER2 Amp); [20])	also measured
10 to 100 nM	< 10 nM	< 10 nM	10 to 100 nM	100 to 1000 nM	100 to 1000 nM	> 1000 nM	> 1000 nM	> 1000 nM	–	–	–	–	–	–	–	C=CC(=O)Nc1cc(Nc2nccc(-n3ccc4ccc(F)cc43)n2)c(OC)cc1N(C)CCN(C)C [Compound 63, N-(5-(4-(6-fluoro-1H-indol-1-yl)-pyrimidin-2-ylamino)-2-((2-(dimethylamino)ethyl)-methyl-amino)-4-methoxyl-phenyl)-acrylamide]	10 to 100 nM	100 to 1000 nM	–	–	–
–	–	–	–	–	–	–	–	–	< 10 nM	8.96 nM	< 10 nM	9.87 nM	> 1000 nM	> 1000 nM	> 1000 nM	C=CC(=O)Nc1cc(Nc2cc(Nc3ccc(OCC4CCOCC4)c(Cl)c3)ncn2)c(OC)cc1N(C)CCN(C)C [Compound 216, N-(5-(6-(3-chloro-4-(tetrahydropyran-4-yl-methoxyl)-phenylamino)-pyrimidin-4-ylamino)-2-((2-dimethylaminoethyl)-methyl-amino)-4-methoxyphenyl)-acrylamide]	–	–	< 10 nM	19.5 nM	–
–	–	–	–	–	–	–	–	–	< 10 nM	4.9 nM	< 10 nM	7.81 nM	> 1000 nM	> 1000 nM	> 1000 nM	C=CC(=O)Nc1cc(Nc2nccc(-n3ccc4c(OCCOC)cccc43)n2)c(OC)cc1N(C)CCN(C)C [Compound 205, N-(5-(4-(4-(2-methoxyl-ethoxyl)-1H-indol-1-yl)-pyrimidin-2-ylamino)-2-(2-(dimethylamino-ethyl)-methyl-amino)-4-methoxyl-phenyl)-acrylamide]	–	–	< 10 nM	5.61 nM	GI50 (Calu-3 (Her2 amp)): 7.88 nM
10 to 100 nM	10 to 100 nM	10 to 100 nM	10 to 100 nM	10 to 100 nM	100 to 1000 nM	> 1000 nM	> 1000 nM	> 1000 nM	–	–	–	–	–	–	–	C=CC(=O)Nc1cc(Nc2nccc(-n3cnc4ccccc43)n2)c(OC)cc1N(C)CCN(C)C [Compound 106]	10 to 100 nM	10 to 100 nM	–	–	GI50 (H1975 (EGFR L858R/T790M); H1975, EGFR L858R/T790M, read-out: GI50): 15.2 nM; GI50 (HCC827 (EGFR dE746-A750); HCC827, EGFR dE746-A750, read-out: GI50): 12.6 nM; GI50 (PC-9 (EGFR dE746-A750); PC-9, EGFR dE746-A750, read-out: GI50): 15.6 nM; GI50 (N87 (HER2 Amp); N87, EGFR wt, Her2 amp, read-out: GI50): 23.6 nM; GI50 (AU565 (Her2 amp); AU565, EGFR wt, Her2 amp, read-out: GI50): 19.5 nM; GI50 (SK-BR-3 (Her2 amp); SK-BR-3, EGFR wt, Her2 amp, read-out: GI50): 101 nM; GI50 (H292 (EGFR WT); H292, EGFR wt, read-out: GI50): > 1000 nM; GI50 ([2]; A431, EGFR wt, read-out: GI50): 498 nM; GI50 (A549 (EGFR WT); A549, EGFR wt, Kras G12S, read-out: GI50): > 1000 nM; GI50 ([3]; H1299, EGFR wt, Nras Q61K, read-out: GI50): > 1000 nM; GI50 ([4]; H460, EGFR wt, Kras G61H, read-out: GI50): > 1000 nM
10 to 100 nM	< 10 nM	< 10 nM	< 10 nM	< 10 nM	100 to 1000 nM	> 1000 nM	> 1000 nM	> 1000 nM	–	–	–	–	–	–	–	C=CC(=O)Nc1cc(Nc2ncnc(Nc3cccc(Br)c3)n2)c(OC)cc1N(C)CCN(C)C [Compound 115, N-(5-(4-(3-bromo-phenylamino)-[1,3,5]triazin-2-ylamino)-2-((2-dimethylamino-ethyl)-methyl-amino)-4-methoxyl-phenyl)-acrylamide]	< 10 nM	10 to 100 nM	–	–	–
